Measured values taken from PMC7982615, “Phase 1 study of telisotuzumab vedotin in Japanese patients with advanced solid tumors” (Cancer Medicine, 2021).
Where two headings read alike, the source gives them in different places. Marks after values point to notes of the source that are not given here. Non-standard residues stand in square brackets, D forms with d. Residues, ends and D or L forms follow the SMILES beside them. *: point of attachment. Dolaproine = CO[C@@H]([C@@H]1CCCN1)[C@@H](C)C(=O)O; Dil = CC[C@H](C)[C@H](NC)[C@@H](CC(=O)O)OC; X1 = C[C@@H](N*)[C@@H](O)c1ccccc1; NMeV = CN[C@H](C(=O)O)C(C)C

Tests used:
[1] = Pharmacokinetics of teliso‐v conjugate and MMAE, noncompartmental; format: in vivo, human; conditions: for AUCtau, MMAE / Cmax, MMAE: geometric mean (%CV); for t1/2, MMAE: harmonic mean (min-max); for Tmax, MMAE: median (min-max)
Description: PK samples were also collected on cycles 2 and 4 predose and approximately 30 minutes after the end of infusion on day 1. PK parameters such as peak concentration (Cmax), time to peak concentration, area under the concentration‐time curve (AUC), and terminal half‐life (t1/2) were determined using noncompartmental methods.

[2] = test system: MET exon 14‐mutated NSCLC; parameters: method as in earlier work; conditions: cited from earlier work
[3] = test system: CD30‐positive Hodgkin lymphoma or systemic anaplastic large cell lymphoma; parameters: method as in PMID 24814862; conditions: US and Japanese patients; cited from earlier work
[4] = cycle 1, after teliso-v 2.4 mg/kg IV, n = 3
[5] = cycle 1, after teliso-v 2.7 mg/kg IV, n = 6

CC[C@H](C)[C@@H]([C@@H](CC(=O)N1CCC[C@H]1[C@H](OC)[C@@H](C)C(=O)N[C@H](C)[C@@H](O)c1ccccc1)OC)N(C)C(=O)[C@@H](NC(=O)[C@@H](NC)C(C)C)C(C)C [MMAE, monomethyl auristatin E] (H-[NMeV]V[Dil][Dolaproine]-X1)
t1/2 ([1]; N = 9, both dose levels): 96 to 140 h
AUCtau, MMAE [1, 4]: 535 (7) ng*h/mL
Cmax, MMAE [1, 4]: 1.69 (10) ng/mL
t1/2, MMAE [1, 4]: 5.80 (4.5–7.8) days
Tmax, MMAE [1, 4]: 168.5 (72.5–168.5) h
t1/2, MMAE ([1]; cycle 1, after teliso-v 2.7 mg/kg IV, N = 4): 4.01 (3–5.6)^c days
AUCtau, MMAE [1, 5]: 764 (78) ng*h/mL
Cmax, MMAE [1, 5]: 2.80 (77) ng/mL
Tmax, MMAE [1, 5]: 168.5 (72.5–168.5) h
Plasma Cmax, preliminary geometric mean ([1]; first dose of teliso‐v, cycle 1, across 2.4 and 2.7 mg/kg): 1.69 to 2.80 ng/mL
Accumulation in cycle 3 ([1]; multiple dosing Q3 W): 1.1–1.2 fold

CNC(=O)c1ccc(-c2cnc3ncc(Cc4ccc5ncccc5c4)n3n2)cc1F [capmatinib]
ORR ([2]; one to two prior lines of treatment): 39.1%
ORR ([2]; treatment‐naive patients): 71.4%

brentuximab vedotin
Ethnic differences in PK [3]: no remarkable ethnic differences in PK were found
